Results: ChEMBL document CHEMBL3425505, “Selected hybrid natural products as tubulin modulators” (Eur J Med Chem, 2015)
Converted amounts (≈) assume the structure as drawn.

Tests used:
[1] = Cytotoxicity against human H460 cells; type: functional, cell-based; conditions: NCI-H460
MCF7 = experiment: Cytotoxicity against human MCF7 cells; type: functional, cell-based
A2780 = experiment: Cytotoxicity against human A2780 cells; type: functional, cell-based
B16 = experiment: Cytotoxicity against mouse B16 cells; type: functional, cell-based
SR = experiment: Growth inhibition of human SR cells; type: functional
CCRF-CEM = experiment: Growth inhibition of human CCRF-CEM cells; type: functional
Homo sapiens [2] = species: Homo sapiens; experiment: Toxicity in metastatic breast cancer patient assessed as neuropathy rate; type: organism-based; conditions: in vivo
Homo sapiens [3] = species: Homo sapiens; experiment: Toxicity in metastatic breast cancer patient assessed as incidence of peripheral neuropathy; type: organism-based; conditions: in vivo
Homo sapiens [4] = species: Homo sapiens; experiment: Toxicity in metastatic breast cancer patient assessed as incidence of neuropathy; type: organism-based; conditions: in vivo

`CO[C@H]1/C=C(/C)CCC[C@H](C)[C@H](O)[C@@H](C)C(=O)C(C)(C)[C@@H](O)CC(=O)O[C@@H]1/C(C)=C/c1csc(C)n1` showed an IC50 [1] of 4.9 nM and an IC50 (MCF7) of 3.7 nM.
With `C/C(=C\c1csc(C)n1)[C@@H]1C[C@@H]2O[C@@H]2CCC[C@@H]2CCC[C@@H](C(=O)C(C)(C)[C@@H](O)CC(=O)O1)[C@H]2O` the EC50 (A2780) was 8500 nM.
With `C/C(=C\c1csc(C)n1)[C@@H]1C[C@@H]2O[C@]2(C)CCC[C@@H]2CCC[C@@H](C(=O)C(C)(C)[C@@H](O)CC(=O)O1)[C@H]2O` the EC50 (A2780) was 8500 nM.
Compound `C=C1C[C@@H]2CC[C@@]34O[C@@H]5[C@@H]6O[C@](O)([C@H](O3)[C@@H]6O[C@H]3CC[C@H](CC(=O)O[C@@H]6[C@@H](C)[C@@H]7O[C@@H]8C[C@]9(C[C@@H]%10O[C@]%11(C[C@H](C)[C@@H]%12O[C@H](CC(=O)O)[C@H](O)C[C@@H]%12O%11)C[C@H](C)[C@@H]%10O9)O[C@@H]8C[C@@H]7O[C@H]6C[C@H]6O[C@@H](CC[C@@H]1O2)C[C@@H](C)C6=C)O[C@H]53)[C@H]4O` has an IC50 (B16) of 5 ng/mL (≈ 4.44 nM).
Compound `CC1=C(c2ccc(C)cn2)CC2/C=C(/C)CCC[C@H](C)[C@H](O)[C@@H](C)C(=O)C(C)(C)[C@@H](O)CC(=O)O[C@H]12` (single isomer, unassigned) has a GI50 (SR) of 2.9 nM and a GI50 (CCRF-CEM) of 2.7 nM.
`C=C1C[C@@H]2CC[C@@]34C[C@H]5O[C@H]6[C@@H](O3)[C@H]3O[C@H](CC[C@@H]3O[C@H]6[C@H]5O4)CC(=O)C[C@@H]3[C@@H](OC)[C@@H](C[C@H](O)CN)O[C@H]3C[C@H]3O[C@@H](CC[C@@H]1O2)C[C@@H](C)C3=C` [ERIBULIN] gave an Activity (Homo sapiens [2]) of 35%, an Activity (Homo sapiens [3]) of 31.4% and an Activity (Homo sapiens [4]) of 33.3%.
Work on `C/C(=C\c1csc(C)n1)[C@@H]1C[C@@H]2O[C@]2(C)CCC[C@H](C)[C@H](O)[C@@H](C)C(=O)C(C)(C)[C@@H](O)CC(=O)N1` [IXABEPILONE] yielded an Activity (Homo sapiens [2]) of 63%, an Activity (Homo sapiens [3]) of 44% and an Activity (Homo sapiens [4]) of 48%.
